From the Deep4Chem optical property database
Values belong to the compound of their own block, whether it stands above or below them.

Experiment: solvent given as SMILES

Structure (SMILES): COc1ccc(-n2c3ccccc3c3cc(/C=C/C(=C(C#N)C#N)c4ccccc4)ccc32)cc1
absorption maximum (in C1CCOC1): 448 nm | absorption maximum (in CC#N): 444 nm | absorption maximum (in CC(C)=O): 445 nm | absorption maximum (in CCOC(C)=O): 443 nm | absorption maximum (in CO): 449 nm | absorption maximum (in CS(C)=O): 454 nm | absorption maximum (in Cc1ccccc1): 450 nm | absorption maximum (in ClC(Cl)Cl): 459 nm

absorption maximum (in CO): 454 nm
Structure (SMILES): O=C1C=C(Nc2ccc(F)c(F)c2)C(=O)c2ccccc21

absorption maximum (in CS(C)=O): 644 nm
Structure (SMILES): COc1ccc(-c2c3nc(cc4ccc([nH]4)c(-c4ccc(OC)c(OCC(=O)O)c4)c4nc(cc5ccc2[nH]5)CC4)C=C3)cc1OCC(=O)O

absorption maximum (in ClC(Cl)Cl): 327 nm
Structure (SMILES): CCCCn1c2ccc(-c3ccc4ccccc4c3)cc2c2ccc3c4cc(-c5ccc6ccccc6c5)ccc4n(CCCC)c3c21

absorption maximum (in ClC(Cl)Cl): 692 nm
Structure (SMILES): CCC1=C(CC)C(C)=[N+]2C1=Cc1c(C)c3cc4c(cc3n1[B-]2(F)F)=[N+]1C(=Cc2c(CC)c(CC)c(C)n2[B-]1(F)F)C=4C

absorption maximum (in CC#N): 400 nm
Structure (SMILES): Cc1cc2c(ccc3c[n+](C)c(C)cc32)c[n+]1C

absorption maximum (in C1COCCO1): 406 nm
Structure (SMILES): COc1ccc(C2=C/C(=C\c3ccccc3)C(=O)O2)cc1OC

absorption maximum (in CO): 359 nm | absorption maximum (in ClC(Cl)Cl): 364 nm
Structure (SMILES): COc1ccc(O)c(C=O)c1

absorption maximum (in ClCCl): 430 nm
Structure (SMILES): FC(F)(F)c1ccc(/C=C/c2nc(/C=C/c3ccc(N(c4ccccc4)c4ccccc4)cc3)cc(/C=C/c3ccc(N(c4ccccc4)c4ccccc4)cc3)n2)cc1

absorption maximum (in ClCCl): 325 nm
Structure (SMILES): CCOC(=O)c1c(-c2cc3ccccc3oc2=O)nn(-c2cccc(Cl)c2)c1C(=O)OCC

Structure (SMILES): C(#Cc1ccc2ccc3cccc4ccc1c2c34)c1ccccc1
absorption maximum (in Cc1ccccc1): 362 nm

absorption maximum (in ClCCl): 372 nm
Structure (SMILES): COc1cc(OC)c2cc(C#N)c(=N)oc2c1

absorption maximum (in ClC(Cl)Cl): 474 nm
Structure (SMILES): CC(C)c1cccc(C(C)C)c1-n1c(=O)c2ccc3c4ccc5c(=O)n(-c6c(C(C)C)cccc6C(C)C)c(=O)c6cc7c(-c8ccccn8)nc8cc(c1=O)c2c3c8c7c4c56

absorption maximum (in C1CCOC1): 410 nm
Structure (SMILES): CCCCCCCCCCOC(=O)c1ccc2c3ccc(C(=O)OCCCCCCCCCC)c4c(C(=O)OCCCCCCCCCC)cc5[nH]c6cc(C(=O)OCCCCCCCCCC)c1c2c6c5c43

absorption maximum (in C1CCCCC1): 517 nm
Structure (SMILES): c1ccc(-c2cc3cccc[n+]3[b-]3ccc(-c4cc[b-]5c(c4)c(-c4ccccc4)cc4cccc[n+]54)cc32)cc1

absorption maximum (in CC1CCCO1): 476 nm
Structure (SMILES): COc1c(-c2c(OC)c3cccc4ccc5oc(=O)cc2c5c43)c2cc(=O)oc3ccc4cccc1c4c32

absorption maximum (in ClCCl): 359 nm
Structure (SMILES): CCN(CC)c1ccc2c(c1)oc(=O)c1cc3c(-c4ccccc4)nn(-c4ccccc4)c3nc12

absorption maximum (in ClCCl): 470 nm
Structure (SMILES): CCCc1ccc(C#Cc2cc(C#Cc3ccc(CCC)cc3)c3ccc4c(C#Cc5ccc(CCC)cc5)cc(C#Cc5ccc(CCC)cc5)c5ccc2c3c54)cc1

absorption maximum (in ClC(Cl)Cl): 441 nm
Structure (SMILES): CCCCN1c2ccc(/C=C/c3cc(=O)oc4cc(C)ccc34)cc2Sc2cc(/C=C/c3cc(=O)oc4cc(C)ccc34)ccc21

absorption maximum (in ClC(Cl)Cl): 350 nm
Structure (SMILES): CC(C)(C)c1ccc2c(c1)oc1nc3oc4ccc(-n5c6ccccc6c6ccccc65)cc4c3cc12

Structure (SMILES): COc1cc(-c2nnc(-c3ccc4ccc5cccc6ccc3c4c56)o2)cc(OC)c1OC
absorption maximum (in C1CCOC1): 393 nm | absorption maximum (in CC1CCCCC1): 392 nm | absorption maximum (in CC#N): 391 nm | absorption maximum (in CCCCCC): 392 nm | absorption maximum (in Cc1ccccc1): 396 nm | absorption maximum (in ClC(Cl)Cl): 396 nm

absorption maximum (in O): 346 nm
Structure (SMILES): [O-]c1ccc2ccccc2c1

absorption maximum (in CC#N): 402 nm | absorption maximum (in CO): 407 nm
Structure (SMILES): COc1ccc(-c2c(-c3ccc(OC)cc3)c3c4c(cccc4c2-c2ccccc2)C(=O)c2ccccc2-3)cc1

absorption maximum (in CS(C)=O): 660 nm
Structure (SMILES): COc1ccc(-c2c3nc(c(-c4ccc(OC)cc4)c4ccc([nH]4)c(-c4ccc(OC)cc4)c4nc(c(-c5ccc(OC)cc5)c5ccc2[nH]5)C=C4N2CCOCC2)C=C3)cc1

absorption maximum (in C1CCOC1): 366 nm
Structure (SMILES): N#Cc1cc(-n2c3ccccc3c3ccccc32)c(-n2c3ccccc3c3cc(Br)ccc32)cc1C#N

absorption maximum (in C1CCOC1): 355 nm | absorption maximum (in CC#N): 355 nm | absorption maximum (in CCCCCC): 354 nm
Structure (SMILES): COC(C)CC1=N/C(=C\c2cccc(N(C)C)c2)C(=O)N1C (stereo unspecified)

absorption maximum (in C1CCOC1): 422 nm
Structure (SMILES): C1=C(c2ccccc2)C=C(c2ccccc2)/C1=C/c1ccc2ccc3cccc4ccc1c2c34

Structure (SMILES): O=P1(c2ccccc2)C(c2cc(C(F)(F)F)cc(C(F)(F)F)c2)=Cc2c3ccc4cccc5ccc(c6cc(-c7ccccc7)n1c26)c3c45 (stereo unspecified)
absorption maximum (in C1CCCCC1): 451 nm | absorption maximum (in C1CCOC1): 451 nm | absorption maximum (in C1COCCO1): 448 nm | absorption maximum (in CC#N): 445 nm | absorption maximum (in CC(C)=O): 446 nm | absorption maximum (in CO): 444 nm | absorption maximum (in Cc1ccccc1): 453 nm | absorption maximum (in ClC(Cl)Cl): 452 nm | absorption maximum (in ClCCl): 450 nm

absorption maximum (in ClC(Cl)Cl): 567 nm
Structure (SMILES): CCCCCCCCN1C(=O)c2ccc3c4c(-c5ccc6c7ccccc7n(-c7ccccc7)c6c5)cc5c6c(cc(-c7ccc8c9ccccc9n(-c9ccccc9)c8c7)c(c7ccc(c2c37)C1=O)c64)C(=O)N(CCCCCCCC)C5=O

Structure (SMILES): COOCc1noc(-c2ccccc2)c1Cl
absorption maximum (in C1CCCCC1): 277 nm

absorption maximum (in CCCCCC): 338 nm | absorption maximum (in CO): 337 nm | absorption maximum (in ClCCl): 340 nm
Structure (SMILES): CC(C)c1ccc2ccc3cccc4ccc1c2c34

absorption maximum (in C1CCCCC1): 412 nm | absorption maximum (in C1CCOC1): 394 nm | absorption maximum (in C1COCCO1): 394 nm | absorption maximum (in CC#N): 384 nm | absorption maximum (in CCCCCC): 412 nm | absorption maximum (in CO): 382 nm | absorption maximum (in ClC(Cl)Cl): 369 nm
Structure (SMILES): F[B-]1(F)n2c(-c3ccccc3)cnc2-c2cccc[n+]21

absorption maximum (in ClC(Cl)Cl): 401 nm
Structure (SMILES): c1ccc2c([SiH](c3c4ccccc4cc4ccccc34)c3c4ccccc4cc4ccccc34)c3ccccc3cc2c1

absorption maximum (in ClC(Cl)Cl): 384 nm
Structure (SMILES): c1ccc(-c2nc(-c3ccccc3)c(N(c3ccccc3)c3ccccc3)[se]2)cc1
